Laboratory results reported in the NIST ThermoML archive (doi:10.1021/je900266h).
± gives the expanded uncertainty stated by the source.

Columns and labels:
[1] = refractive index (Na D-line) (dimensionless); mn = molality of the nth substance listed, in mol/kg; details: 101 kPa, Liquid, Standard Abbe refractometry
[2] = refractive index (Na D-line) (dimensionless); details: 101.33 kPa, Liquid, Standard Abbe refractometry

O=S(=O)([O-])[O-].[Cu+2] [copper sulfate] + O
refractive index ([1]; 288.15 K, m1 = 0.1346): 1.33752 ± 0.00041
refractive index ([1]; 288.15 K, m1 = 0.3007): 1.34217 ± 0.00041
refractive index ([1]; 288.15 K, m1 = 0.4408): 1.34604 ± 0.00041
refractive index ([1]; 288.15 K, m1 = 0.5896): 1.35008 ± 0.00041
refractive index ([1]; 288.15 K, m1 = 0.7359): 1.35392 ± 0.00042
refractive index ([1]; 288.15 K, m1 = 0.859): 1.35712 ± 0.00042
refractive index ([1]; 288.15 K, m1 = 1.016): 1.36104 ± 0.00042
refractive index ([1]; 288.15 K, m1 = 1.179): 1.3651 ± 0.00042
refractive index ([1]; 288.15 K, m1 = 1.301): 1.36803 ± 0.00042
refractive index ([1]; 298.15 K, m1 = 0.1346): 1.33658 ± 0.00041
refractive index ([1]; 298.15 K, m1 = 0.3007): 1.34125 ± 0.00041
refractive index ([1]; 298.15 K, m1 = 0.4408): 1.3451 ± 0.00041
refractive index ([1]; 298.15 K, m1 = 0.5896): 1.34915 ± 0.00041
refractive index ([1]; 298.15 K, m1 = 0.7359): 1.35287 ± 0.00041
refractive index ([1]; 298.15 K, m1 = 0.859): 1.35606 ± 0.00042
refractive index ([1]; 298.15 K, m1 = 1.016): 1.36002 ± 0.00042
refractive index ([1]; 298.15 K, m1 = 1.179): 1.36398 ± 0.00042
refractive index ([1]; 298.15 K, m1 = 1.301): 1.367 ± 0.00042
refractive index ([1]; 298.15 K, m1 = 1.456): 1.3706 ± 0.00042
refractive index ([1]; 308.15 K, m1 = 0.1346): 1.33528 ± 0.00041
refractive index ([1]; 308.15 K, m1 = 0.3007): 1.33987 ± 0.00041
refractive index ([1]; 308.15 K, m1 = 0.4408): 1.3436 ± 0.00041
refractive index ([1]; 308.15 K, m1 = 0.5896): 1.34753 ± 0.00041
refractive index ([1]; 308.15 K, m1 = 0.7359): 1.35129 ± 0.00041
refractive index ([1]; 308.15 K, m1 = 0.859): 1.35427 ± 0.00042
refractive index ([1]; 308.15 K, m1 = 1.016): 1.35816 ± 0.00042
refractive index ([1]; 308.15 K, m1 = 1.179): 1.36209 ± 0.00042
refractive index ([1]; 308.15 K, m1 = 1.301): 1.365 ± 0.00042
refractive index ([1]; 308.15 K, m1 = 1.456): 1.36872 ± 0.00042
refractive index ([1]; 308.15 K, m1 = 1.579): 1.37162 ± 0.00042
refractive index ([1]; 318.15 K, m1 = 0.1346): 1.33371 ± 0.00041
refractive index ([1]; 318.15 K, m1 = 0.3007): 1.33834 ± 0.00041
refractive index ([1]; 318.15 K, m1 = 0.4408): 1.34204 ± 0.00041
refractive index ([1]; 318.15 K, m1 = 0.5896): 1.34587 ± 0.00041
refractive index ([1]; 318.15 K, m1 = 0.7359): 1.34951 ± 0.00041
refractive index ([1]; 318.15 K, m1 = 0.859): 1.35249 ± 0.00042
refractive index ([1]; 318.15 K, m1 = 1.016): 1.35632 ± 0.00042
refractive index ([1]; 318.15 K, m1 = 1.179): 1.36027 ± 0.00042
refractive index ([1]; 318.15 K, m1 = 1.301): 1.36305 ± 0.00042
refractive index ([1]; 318.15 K, m1 = 1.456): 1.36664 ± 0.00042
refractive index ([1]; 318.15 K, m1 = 1.579): 1.36952 ± 0.00042
refractive index ([1]; 318.15 K, m1 = 1.736): 1.37296 ± 0.00042
refractive index ([1]; 318.15 K, m1 = 1.891): 1.37632 ± 0.00042
refractive index ([1]; 318.15 K, m1 = 2.058): 1.38013 ± 0.00042

CCO [ethanol]
refractive index ([2]; 288.15 K): 1.36344 ± 0.00042
refractive index ([2]; 298.15 K): 1.35922 ± 0.00042
refractive index ([2]; 308.15 K): 1.35477 ± 0.00042
refractive index ([2]; 318.15 K): 1.35068 ± 0.00042

O=S(=O)([O-])[O-].[Li+].[Li+] [lithium sulfate] + O
refractive index ([1]; 288.15 K, m1 = 0.252): 1.3383 ± 0.00041
refractive index ([1]; 288.15 K, m1 = 0.4681): 1.34212 ± 0.00041
refractive index ([1]; 288.15 K, m1 = 0.7337): 1.34651 ± 0.00041
refractive index ([1]; 288.15 K, m1 = 0.9917): 1.35062 ± 0.00041
refractive index ([1]; 288.15 K, m1 = 1.245): 1.3544 ± 0.00041
refractive index ([1]; 288.15 K, m1 = 1.468): 1.35752 ± 0.00042
refractive index ([1]; 288.15 K, m1 = 1.756): 1.3614 ± 0.00042
refractive index ([1]; 288.15 K, m1 = 1.757): 1.36143 ± 0.00042
refractive index ([1]; 288.15 K, m1 = 1.939): 1.36365 ± 0.00042
refractive index ([1]; 288.15 K, m1 = 2.124): 1.36601 ± 0.00042
refractive index ([1]; 288.15 K, m1 = 2.306): 1.36812 ± 0.00042
refractive index ([1]; 288.15 K, m1 = 2.542): 1.3709 ± 0.00042
refractive index ([1]; 288.15 K, m1 = 2.798): 1.3736 ± 0.00042
refractive index ([1]; 288.15 K, m1 = 2.983): 1.37551 ± 0.00042
refractive index ([1]; 288.15 K, m1 = 3.158): 1.37704 ± 0.00042
refractive index ([1]; 288.15 K, m1 = 3.22): 1.37774 ± 0.00042
refractive index ([1]; 298.15 K, m1 = 0.252): 1.33727 ± 0.00041
refractive index ([1]; 298.15 K, m1 = 0.4681): 1.34096 ± 0.00041
refractive index ([1]; 298.15 K, m1 = 0.7337): 1.34534 ± 0.00041
refractive index ([1]; 298.15 K, m1 = 0.9917): 1.34944 ± 0.00041
refractive index ([1]; 298.15 K, m1 = 1.245): 1.35316 ± 0.00041
refractive index ([1]; 298.15 K, m1 = 1.468): 1.35628 ± 0.00042
refractive index ([1]; 298.15 K, m1 = 1.756): 1.36011 ± 0.00042
refractive index ([1]; 298.15 K, m1 = 1.757): 1.36015 ± 0.00042
refractive index ([1]; 298.15 K, m1 = 1.939): 1.36242 ± 0.00042
refractive index ([1]; 298.15 K, m1 = 2.124): 1.36472 ± 0.00042
refractive index ([1]; 298.15 K, m1 = 2.306): 1.36691 ± 0.00042
refractive index ([1]; 298.15 K, m1 = 2.542): 1.36964 ± 0.00042
refractive index ([1]; 298.15 K, m1 = 2.798): 1.37243 ± 0.00042
refractive index ([1]; 298.15 K, m1 = 2.983): 1.37442 ± 0.00042
refractive index ([1]; 308.15 K, m1 = 0.252): 1.33612 ± 0.00041
refractive index ([1]; 308.15 K, m1 = 0.4681): 1.33987 ± 0.00041
refractive index ([1]; 308.15 K, m1 = 0.7337): 1.34419 ± 0.00041
refractive index ([1]; 308.15 K, m1 = 0.9917): 1.34829 ± 0.00041
refractive index ([1]; 308.15 K, m1 = 1.245): 1.35198 ± 0.00041
refractive index ([1]; 308.15 K, m1 = 1.468): 1.35518 ± 0.00042
refractive index ([1]; 308.15 K, m1 = 1.756): 1.35905 ± 0.00042
refractive index ([1]; 308.15 K, m1 = 1.757): 1.35909 ± 0.00042
refractive index ([1]; 308.15 K, m1 = 1.939): 1.36134 ± 0.00042
refractive index ([1]; 308.15 K, m1 = 2.124): 1.36368 ± 0.00042
refractive index ([1]; 308.15 K, m1 = 2.306): 1.36574 ± 0.00042
refractive index ([1]; 308.15 K, m1 = 2.542): 1.3685 ± 0.00042
refractive index ([1]; 308.15 K, m1 = 2.798): 1.37124 ± 0.00042
refractive index ([1]; 308.15 K, m1 = 2.983): 1.37316 ± 0.00042
refractive index ([1]; 318.15 K, m1 = 0.252): 1.33446 ± 0.00041
refractive index ([1]; 318.15 K, m1 = 0.4681): 1.33812 ± 0.00041
refractive index ([1]; 318.15 K, m1 = 0.7337): 1.3426 ± 0.00041
refractive index ([1]; 318.15 K, m1 = 0.9917): 1.3467 ± 0.00041
refractive index ([1]; 318.15 K, m1 = 1.245): 1.35056 ± 0.00041
refractive index ([1]; 318.15 K, m1 = 1.468): 1.35375 ± 0.00042
refractive index ([1]; 318.15 K, m1 = 1.756): 1.35765 ± 0.00042
refractive index ([1]; 318.15 K, m1 = 1.757): 1.35767 ± 0.00042
refractive index ([1]; 318.15 K, m1 = 1.939): 1.35998 ± 0.00042
refractive index ([1]; 318.15 K, m1 = 2.124): 1.36227 ± 0.00042
refractive index ([1]; 318.15 K, m1 = 2.306): 1.36453 ± 0.00042
refractive index ([1]; 318.15 K, m1 = 2.542): 1.3672 ± 0.00042
refractive index ([1]; 318.15 K, m1 = 2.798): 1.37003 ± 0.00042
refractive index ([1]; 318.15 K, m1 = 2.983): 1.37206 ± 0.00042
